“And” between values parts separate entries of the source, which are not always exact repeats. Equal entries are not always repeated.

Data set [1] relates to metastatic uveal melanoma. On the set-up: method as in PMID 34551229, PMID 35254876. The following applies: previously untreated HLA-A*0201 positive patients, versus best alternative care; ref [6], [7]; cited from earlier work.
Data set [2] concerns patients with metastatic uveal melanoma. Nature of the data set: Safety and tolerability: adverse events in phase Ib patients. The following applies: given in the combination, all patients.
Protocol: Treated patients were assessed for toxicity by physical examinations on a weekly basis during cycle 1 and on day 1 of each subsequent cycle, with laboratory assessments and ECGs performed on cycle 1 day 1, cycle 1 day 15, and on day 1 of each subsequent cycle. Patients underwent imaging studies for response evaluation during screening and after every 2 cycles of treatment.
Data set [3] is described as follows: Plasma pharmacokinetics by LC-MS/MS. The following applies: for AUC(0-t) / Cmax / Tmax: human, plasma, oral; for Cmax: Median Cmax [Min; for Tmax: Median Tmax [Min.
Protocol: (§1) Samples were collected on days 1, 8, 15 and 22 of cycle 1, and pre-dose on day 1 of cycles 2 through 6. Plasma concentrations were measured using a validated liquid chromatography-tandem mass spectrometry assay. The lower limit of quantification (LLOQ) was 3.0 ng/mL for sotrastaurin and its metabolite AEE800. […] Concentrations below the LLOQ were treated as zero in summary statistics.
(§2) The PK analyses used the actual dose received for each particular PK profile. Parameters relating to the PK profile (e.g., AUC and Cmax) were summarized for data collected on C1D1 and C1D15.
Another data set is described as follows: clinical. The following applies: human, in vivo, median AUC0-8hr of sotrastaurin.
For data set [4] the following is noted: human, in vivo.
Protocol: as §1, §2
Setting [5] is: b.i.d. dosing in combination with sotrastaurin.
Where [6] appears, read: Max], plasma binimetinib, 2nd section, Cycle 1 Day 1 (C1D1), Dose Level 1: AEB071 150 mg bid and MEK162 45 mg bid.
Setting [7] is: Max], plasma binimetinib, 2nd section, Cycle 1 Day 1 (C1D1), Dose Level 3: AEB071 300 mg bid and MEK162 30 mg bid.
Where [8] appears, read: Max], plasma binimetinib, 2nd section, Cycle 1 Day 1 (C1D1), Dose Level 4: AEB071 300 mg bid and MEK162 45 mg bid.
Where [9] appears, read: Max], plasma binimetinib, 2nd section, Cycle 1 Day 1 (C1D1), Dose Level 5: AEB071 350 mg bid and MEK162 30 mg bid.
Setting [10] is: Max], plasma binimetinib, 2nd section, Cycle 1 Day 1 (C1D1), Dose Level 6: AEB071 400 mg bid and MEK162 30 mg bid.
The mark [11] stands for this setting: Max], plasma binimetinib, Cycle 1 Day 1 (C1D1), Dose Level 1: AEB071 150 mg bid and MEK162 45 mg bid.
[12] abbreviates: Max], plasma binimetinib, Cycle 1 Day 1 (C1D1), Dose Level 2: AEB071 200 mg bid and MEK162 45 mg bid.
Setting [13] is: Max], plasma binimetinib, Cycle 1 Day 1 (C1D1), Dose Level 3: AEB071 300 mg bid and MEK162 30 mg bid.
[14] abbreviates: Max], plasma binimetinib, Cycle 1 Day 1 (C1D1), Dose Level 4: AEB071 300 mg bid and MEK162 45 mg bid.
[15] abbreviates: Max], plasma binimetinib, Cycle 1 Day 1 (C1D1), Dose Level 5: AEB071 350 mg bid and MEK162 30 mg bid.
Setting [16] is: Max], plasma binimetinib, Cycle 1 Day 1 (C1D1), Dose Level 6: AEB071 400 mg bid and MEK162 30 mg bid.

Protocol for clinical: as §1, §2

“tebentafusp: agent improving overall survival in previously untreated HLA-A*0201 positive metastatic uveal melanoma patients”: in data set [1], the “hazard ratio for death” value is on record as 0.51 and the “reduction in the risk of death” value is recorded as 49%.

What is called AUC(0-t) is the area under the concentration-time curve up to a stated or last time point. Higher therefore signals more exposure. A word on the Cmax: it is the highest concentration seen after dosing. Broadly, the Tmax is the time from dosing to the highest level. For the compound `Cn1cnc2c(F)c(Nc3ccc(Br)cc3F)c(C(=O)NOCCO)cc21` [binimetinib], the Dose reductions applied in data set [2] was 65.8%. Besides, the “median RACC of binimetinib, other three dose levels lower than or close to 1” value in data set [3] (setting [5]) was 0.76 and 0.78 and 1.08. In addition, the “median RACC of binimetinib, three dose levels much higher than 1” value in data set [3] (setting [5]) was 1.34 and 1.42 and 1.54. Also, the exposure AUC(0-t) in data set [3] (30 mg, median AUC0-8hr range of binimetinib, cycle 1 day 15, binimetinib 30 mg b.i.d. with varying doses of sotrastaurin) is 1210 to 1450 ng·h/mL; in data set [3] (45 mg, median AUC0-8hr range of binimetinib, cycle 1 day 15, binimetinib 45 mg b.i.d. with varying doses of sotrastaurin) it was 1480 to 2140 ng·h/mL; in data set [3] (Median AUC0–8hr [Min, Max], plasma binimetinib, 2nd section, Cycle 1 Day 1 (C1D1), Dose Level 1: AEB071 150 mg bid and MEK162 45 mg bid) it was 2000 ng·h/mL; in data set [3] (Median AUC0–8hr [Min, Max], plasma binimetinib, 2nd section, Cycle 1 Day 1 (C1D1), Dose Level 3: AEB071 300 mg bid and MEK162 30 mg bid), 1210 ng·h/mL; in data set [3] (Median AUC0–8hr [Min, Max], plasma binimetinib, 2nd section, Cycle 1 Day 1 (C1D1), Dose Level 4: AEB071 300 mg bid and MEK162 45 mg bid), 1480 ng·h/mL; in data set [3] (Median AUC0–8hr [Min, Max], plasma binimetinib, 2nd section, Cycle 1 Day 1 (C1D1), Dose Level 5: AEB071 350 mg bid and MEK162 30 mg bid), 1250 ng·h/mL. Moreover, the AUC(0-t) stood at 1450 ng·h/mL in data set [3] (Median AUC0–8hr [Min, Max], plasma binimetinib, 2nd section, Cycle 1 Day 1 (C1D1), Dose Level 6: AEB071 400 mg bid and MEK162 30 mg bid); 1540 ng·h/mL in data set [3] (Median AUC0–8hr [Min, Max], plasma binimetinib, Cycle 1 Day 1 (C1D1), Dose Level 1: AEB071 150 mg bid and MEK162 45 mg bid); 1550 ng·h/mL in data set [3] (Median AUC0–8hr [Min, Max], plasma binimetinib, Cycle 1 Day 1 (C1D1), Dose Level 2: AEB071 200 mg bid and MEK162 45 mg bid); 1130 ng·h/mL in data set [3] (Median AUC0–8hr [Min, Max], plasma binimetinib, Cycle 1 Day 1 (C1D1), Dose Level 3: AEB071 300 mg bid and MEK162 30 mg bid); 1610 ng·h/mL in data set [3] (Median AUC0–8hr [Min, Max], plasma binimetinib, Cycle 1 Day 1 (C1D1), Dose Level 4: AEB071 300 mg bid and MEK162 45 mg bid); 1260 ng·h/mL in data set [3] (Median AUC0–8hr [Min, Max], plasma binimetinib, Cycle 1 Day 1 (C1D1), Dose Level 5: AEB071 350 mg bid and MEK162 30 mg bid). In data set [3] (Median AUC0–8hr [Min, Max], plasma binimetinib, Cycle 1 Day 1 (C1D1), Dose Level 6: AEB071 400 mg bid and MEK162 30 mg bid), this compound registered an exposure AUC(0-t) of 985 ng·h/mL. Further, the peak concentration (Cmax) in data set [3] (setting [6]) was 493 ng/mL; in data set [3] (Max], plasma binimetinib, 2nd section, Cycle 1 Day 1 (C1D1), Dose Level 2: AEB071 200 mg bid and MEK162 45 mg bid) it was 410 ng/mL; in data set [3] (setting [7]), 246 ng/mL; in data set [3] (setting [8]), 391 ng/mL; in data set [3] (setting [9]), 280 ng/mL; in data set [3] (setting [10]) it was 346 ng/mL. For the same compound, the Cmax in data set [3] (setting [11]) was 366 ng/mL; in data set [3] (setting [12]), 450 ng/mL; in data set [3] (setting [13]), 213 ng/mL; in data set [3] (setting [14]) it was 370 ng/mL; in data set [3] (setting [15]), 259 ng/mL; in data set [3] (setting [16]) it was 279 ng/mL. In addition, the time of peak concentration (Tmax) in data set [3] (setting [6]) is 2 h; in data set [3] (setting [7]), 3 h; in data set [3] (setting [8]) it was 2.9 h; in data set [3] (setting [9]) it was 1.9 h; in data set [3] (setting [10]) it was 1.5 h; in data set [3] (setting [11]) it was 1.1 h. Moreover, the Tmax in data set [3] (setting [12]) was 1.1 h; in data set [3] (setting [13]), 2 h; in data set [3] (setting [14]) it was 4 h; in data set [3] (setting [15]), 2 h; in data set [3] (setting [16]), 1.1 h. For the same compound, the “Median AUC0–8hr [Min; Max]” value in data set [3] (plasma binimetinib, 2nd section, Cycle 1 Day 1 (C1D1), Dose Level 2: AEB071 200 mg bid and MEK162 45 mg bid) is 2137.7 [1121.6; 2772.3] hr*ng/ml.

For the compound `CN1CCN(c2nc(C3=C(c4c[nH]c5ccccc45)C(=O)NC3=O)c3ccccc3n2)CC1` [sotrastaurin], the values for the exposure AUC(0-t) in “clinical” (150 mg) and in the data set “clinical” (400 mg) were 6070 ng·h/mL and 21600 ng·h/mL, respectively. Moreover, the Dose reductions applied in data set [2] is 76.3%. Also, the “accumulation of sotrastaurin following b.i.d. dosing” value in data set [3] (exposure on day 15 compared with day 1) is recorded as “no observed accumulation”. For the same compound, the “median RACC, range at different doses of sotrastaurin” value in data set [4] was 0.72-1.15.
